“Also recorded” adds a separate entry of the source. Where no end group is shown, it is not given here.
Key:
[1] = tested on: HLA Class I on human White Blood Cells; assay: Expression of MHC (HLA) Class I on human White Blood Cells; assay type: cell-based; conditions: 0.003 micrograms per ml
Excerpt: A cell specific effect of this activation was an increase in the population of monocytes expressing MHC Class I and a decrease in the population of CD8 lymphocytes expressing MHC Class I.

[2] = tested on: transplanted sarcoma of the uterus SM-322; assay: Transplanted mouse sarcoma SM-322 model; assay type: in vivo, CBA mice; conditions: control 12-16
activated macrophages = assay: Induction of activated macrophages in mice (peritoneal exsudate); assay type: in vivo
Procedure: Groups of three mice (CDAxC57B1)F1 weighing 22-24 g were injected abdominally with each peptide solution of 1.0 microgram of peptide dissolved in 0.5 ml of physiological saline. After 24 hours the animals were killed using neck vertebrae dislocation and 5 ml of Hanks solution was injected into the abdomen. The abdomen was massaged for 30 seconds and then the peritoneal liquid was collected. The collected liquid was filtered using a nylon filter into siliconised tubes containing 1.5 mg/ml EDTA. The number of nucleus containing cells in […] of filtrate were then assessed under microscopic examination using a Nihon hemocytometer. The cells were pelleted by centrifugation for 5 minutes at 800 g, the pellet was resuspended in fetal calf serum, the cell suspension was dropped on to a glass microscope slide and dried then fixed in methanol and stained with Romanovski's colouring agent. Morphological analysis of the cells of the peritoneal exsudate were performed using an Opton optical microscope at 1600 magnifications. The number of lymphocytes, resting macrophages, activated macrophages, granulocytes and other cell types were assessed.

[3] = tested on: transplanted sarcoma of the uterus SM-322; assay: Transplanted mouse sarcoma SM-322 model; assay type: in vivo, CBA mice; conditions: for Percent decrease in tumour volume relative to control: SM-322
Excerpt: Anticancer Activity of Hepreceptor Peptides on the Growth of Transplanted Sarcoma of the Uterus SM-322 and on Cancer of the Uterine Cervix CUS-5 Performed in CBA Mice Using Rupe312 and Rupe414 as Examples Transplanted mouse sarcoma SM-322 model (endothelial tumour). Primary tumours of the uterus were induced in female mice using 1.2 dimethylhydrazine. A few primary tumours were transplanted into syngeneic mice. The first visible nodules started to appear at the point of transplation after 4 days. The life expectancy of the mice with transplanted tumours was 22-24 days. […] The tumours were introduced as a 0.5 ml of tumour suspension (1 g tumour per 10 ml of Igla medium) and ten mice used in each treatment group. […] The average percent decrease of tumour volume relative to the control group was recorded at three time points. The longevity of the mice in the treatment groups and control groups was compared and the histology of the tumours between control and treatment groups was compared.

[4] = tested on: transplanted cervical cancer CUC-5; assay: Transplanted mouse cervical cancer model CUC-5; assay type: in vivo, CBA mice; conditions: for Percent decrease in tumour volume relative to control / Days of life expectancy: CUC-5; for Days of life expectancy: control 47-76
Excerpt: Anticancer Activity of Hepreceptor Peptides on the Growth of Transplanted Sarcoma of the Uterus SM-322 and on Cancer of the Uterine Cervix CUS-5 Performed in CBA Mice Using Rupe312 and Rupe414 as Examples
Transplanted mouse cervical cancer model CUC-5 (epithelial tumour)
Primary tumours were induced in female mice using methylcholantrene. A few primary turnouts were then auto-transplanted into the uterine cervix. The life expectancy of mice with transplanted tumours was 43 days.
CBA female mice weighed 21.4=/−1.2 g. and were 2-3 months old. The tumours were introduced as a 0.5 ml of tumour suspension (1 g tumour per 10 ml of Igla medium) and ten mice used in each treatment group.
Lyophylised peptide were dissolved in sterile physiological saline immediately before use in three concentrations. 0.5 ml of solution was injected twice weekly into the peritoneum of the mice for the duration of the experiment. Three different concentrations of peptide were used leading to three final doses per injection per mouse of 10, 1.0 and 0.1 micrograms.
The average percent decrease of tumour volume relative to the control group was recorded at three time points. The longevity of the mice in the treatment groups and control groups was compared and the histology of the tumours between control and treatment groups was compared.

[5] = tested on: human Peripheral Blood Mononuclear Cells; assay: In vitro activation of human PBMC, tritiated thymidine incorporation; assay type: cell-based; conditions: for incorporation of 3H thymidine: three days, Control 370
Procedure: Peripheral Blood Mononuclear Cells (PBMC) were separated from the peripheral blood of a […] donor using the standard method of fractionation in a ficoll gradient. The PBMC were suspended in culture medium containing RPMI1640 medium plus 10% fetal calf serum, 1 mM L-glutamin and antibiotics (BM). The cell suspension was placed in wells of a 96 hole microwell plate for cell cultivation, (100 microliters of suspension containing 100,000 cells per well). […] The negative control well contained BM but no peptide. The plate was incubated at 37° C. for three days then radioactive ^3H thymidine was added to a final concentration of 1 microcurie per ml. The incorporation of ^3H thymidine into the DNA of the cells was measured using a betacounter using standard procedures. The experiment was repeated twice and the results expressed as an average of the two experiments in radioactive counts per minute.

[6] = Animal toxicology and pre-clinical testing of HEP1; conditions: rat and rabbit
[7] = 0.1 Microg/mouse IP twice weekly
[8] = 10 Microg/mouse IP twice weekly
[9] = 0.1 Microg/mouse IP twice weekly, Day 8
[10] = 0.1 Microg/mouse IP twice weekly, Day 12
[11] = 1 Microg/mouse IP twice weekly, Day 8
[12] = 1 Microg/mouse IP twice weekly, Day 12
[13] = 10 Microg/mouse IP twice weekly, Day 8
[14] = 10 Microg/mouse IP twice weekly, Day 12

## KRRETVEREKE (Hepreceptor peptide) [Rupe414]
[1]; 24 hours
  relative activity in lowering intensity of HLA expression on WBC: more active than HEP1
[1]; B and NK cells, 24 hours
  Density of cell surface expression of HLA Class I, rebased to 100 for control: 77
  Percentage of cell population expressing HLA Class I, rebased to 100 for control: 101
[1]; CD4 lymphocytes, 24 hours
  Density of cell surface expression of HLA Class I, rebased to 100 for control: 77
  Percentage of cell population expressing HLA Class I, rebased to 100 for control: 105
[1]; CD8 lymphocytes, 24 hours
  Density of cell surface expression of HLA Class I, rebased to 100 for control: 76
  Percentage of cell population expressing HLA Class I, rebased to 100 for control: 89
[1]; Granulocytes, 24 hours
  Density of cell surface expression of HLA Class I, rebased to 100 for control: 85
  Percentage of cell population expressing HLA Class I, rebased to 100 for control: 98
[1]; Monocytes/Macrophages, 24 hours
  Percentage of cell population expressing HLA Class I, rebased to 100 for control: 109
[1]; Monocytes/Macrophages, 24 hours at 37° C.
  Density of cell surface expression of HLA Class I, rebased to 100 for control: 83
[2]; [7]
  Days of life expectancy: 12 to 19 days
[2]; 1 Microg/mouse IP twice weekly
  Days of life expectancy: 12 to 20 days
[2]; [8]
  Days of life expectancy: 13 to 20 days
Activated macrophages; 1.0 microgram peptide/mouse
  activity in increasing activated macrophages relative to HEP1: significantly more active than HEP1
Activated macrophages; 1.0 microgram peptide/mouse injected abdominally, after 24 hours, saline 1.9
  Activated macrophages as a percent of total number of cells: 8.5%
[3]; [9]
  Percent decrease in tumour volume relative to control: 68%
[3]; [10]
  Percent decrease in tumour volume relative to control: 39%
[3]; 0.1 Microg/mouse IP twice weekly, Day 15
  Percent decrease in tumour volume relative to control: 22%
[3]; [11]
  Percent decrease in tumour volume relative to control: 68%
[3]; [12]
  Percent decrease in tumour volume relative to control: 28%
[3]; 1 Microg/mouse IP twice weekly, Day 15
  Percent decrease in tumour volume relative to control: 43%
[3]; [13]
  Percent decrease in tumour volume relative to control: 65%
[3]; [14]
  Percent decrease in tumour volume relative to control: 43%
[3]; 10 Microg/mouse IP twice weekly, Day 15
  Percent decrease in tumour volume relative to control: 43%
[3]; both models (SM-322 and CUC-5)
  histology of the tumours: non bleeding ulcerous destruction of the centre of tumours
[4]; [9]
  Percent decrease in tumour volume relative to control: 50%
[4]; [10]
  Percent decrease in tumour volume relative to control: 18%
[4]; 0.1 Microg/mouse IP twice weekly, Day 19
  Percent decrease in tumour volume relative to control: 57%
[4]; [7]
  Days of life expectancy: 47 to 76 days
[4]; [11]
  Percent decrease in tumour volume relative to control: 50%
[4]; [12]
  Percent decrease in tumour volume relative to control: 16%
[4]; 1 Microg/mouse IP twice weekly, Day 19
  Percent decrease in tumour volume relative to control: 43%
[4]; 1 Microg/mouse IP twice weekly
  Days of life expectancy: 36 to 76 days
[4]; [13]
  Percent decrease in tumour volume relative to control: 50%
[4]; [14]
  Percent decrease in tumour volume relative to control: 16%
[4]; 10 Microg/mouse IP twice weekly, Day 19
  Percent decrease in tumour volume relative to control: 48%
[4]; [8]
  Days of life expectancy: 36 to 76 days
[4]; slower growing transplanted cervical cancer
  change in life expectancy: no significant increase (or decrease) in life expectancy was detected
[5]; PBMC activation, thymidine incorporation
  activity relative to HEP1: significantly more active than HEP1; also recorded: ten fold higher activity than HEP1
[5]; PBMC proliferation
  concentration of peak activity: around 3 nanograms/ml
[5]; Peptide 0.0001 micro g/ml
  incorporation of 3H thymidine: 493 radioactive counts per minute
[5]; Peptide 0.0003 micro g/ml
  incorporation of 3H thymidine: 580 radioactive counts per minute
[5]; Peptide 0.001 micro g/ml
  incorporation of 3H thymidine: 684 radioactive counts per minute
[5]; Peptide 0.003 micro g/ml
  incorporation of 3H thymidine: 2087 radioactive counts per minute
[5]; Peptide 0.01 micro g/ml
  incorporation of 3H thymidine: 650 radioactive counts per minute
[5]; Peptide 0.03 micro g/ml
  incorporation of 3H thymidine: 596 radioactive counts per minute
[5]; Peptide 0.1 micro g/ml
  incorporation of 3H thymidine: 485 radioactive counts per minute
[5]; Peptide 0.3 micro g/ml
  incorporation of 3H thymidine: 492 radioactive counts per minute
[5]; Peptide 1 micro g/ml
  incorporation of 3H thymidine: 449 radioactive counts per minute
[5]; Peptide 3 micro g/ml
  incorporation of 3H thymidine: 437 radioactive counts per minute
[5]; Peptide 10 micro g/ml
  incorporation of 3H thymidine: 394 radioactive counts per minute

## TEKKRRETVEREKE [HEP1, TEKKRRETVEREKE]
[6]
  Chronic toxicity: negative
  Effect of 1000× therapeutic dose: negative
  Embryotoxicity: negative
  Influence on CNS and HVS: negative
  Local Irritation: negative
  Mutagenic effects: negative
  Sub-acute toxicity: negative
[6]; pharmaceutical grade HEP1
  Preliminary evaluation of toxicity: negative

Source: patent US6849596B1, “Regulatory/unfolding peptides of ezrin” (priority 1999, dated 2005)
